Legend:
Format in all cases: in vivo
Viola tricolor [1] = assay: Pre-emergence herbicidal action against VIOTR
Procedure, shortened: (§1)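 Sandy loam pots, seeds covered with soil, then surface-treated with WP or EC formulations at 600–800 l/ha water plus 0.2% wetting agent. Greenhouse, 3 weeks. Percent damage vs untreated controls.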

Hordeum murinum [2] = assay: Post-emergence herbicidal action against HORMU
Procedure, shortened: (§2)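 Herbicidal action is a visual percentage rating (0% = as untreated control, 100% = plants dead) made roughly 3 weeks after treatment. Plants were grown in sandy loam in the greenhouse and treated at the one-leaf stage, 2 to 3 weeks post-sowing. Treatment was a foliar spray of wettable-powder or emulsion-concentrate formulations at 600 to 800 l/ha water plus 0.2% wetting agent.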

Matricaria inodora [3] = assay: Pre-emergence herbicidal action against MATIN; conditions: visual score after 3 weeks vs untreated controls
Procedure, shortened: as §1

Alopecurus myosuroides [4] = assay: Pre-emergence herbicidal action against ALOMY; conditions: visual score after 3 weeks vs untreated controls
Procedure, shortened: as §1

Abutilon theophrasti [5] = assay: Pre-emergence herbicidal action against ABUTH; conditions: visual score after 3 weeks vs untreated controls
Procedure, shortened: as §1

Echinochloa crus-galli [6] = assay: Post-emergence herbicidal action against ECHCG; conditions: visual assessment about 3 weeks after treatment
Procedure, shortened: as §2

Viola tricolor [7] = assay: Post-emergence herbicidal action against VIOTR
Procedure, shortened: as §2

Pharbitis purpurea [8] = assay: Pre-emergence herbicidal action against PHBPU; conditions: 320 g/ha; visual score after 3 weeks vs untreated controls
Procedure, shortened: as §1

Cyperus esculentus [9] = assay: Post-emergence herbicidal action against CYPES; conditions: visual assessment about 3 weeks after treatment
Procedure, shortened: as §2

Matricaria inodora [10] = assay: Post-emergence herbicidal action against MATIN; conditions: for Post-emergence action against MATIN in %: visual assessment about 3 weeks after treatment
Procedure, shortened: as §2

Veronica persica [11] = assay: Post-emergence herbicidal action against VERPE; conditions: visual assessment about 3 weeks after treatment
Procedure, shortened: as §2

Amaranthus retroflexus [12] = assay: Pre-emergence herbicidal action against AMARE; conditions: visual score after 3 weeks vs untreated controls
Procedure, shortened: as §1

Lolium rigidum [13] = assay: Post-emergence herbicidal action against LOLRI; conditions: 80 g/ha
Procedure, shortened: as §2

Setaria viridis [14] = assay: Pre-emergence herbicidal action against SETVI
Procedure, shortened: as §1

Alopecurus myosuroides [15] = assay: Post-emergence herbicidal action against ALOMY
Procedure, shortened: as §2

Veronica persica [16] = assay: Pre-emergence herbicidal action against VERPE; conditions: 320 g/ha
Procedure, shortened: as §1

Hordeum murinum [17] = assay: Pre-emergence herbicidal action against HORMU; conditions: visual score after 3 weeks vs untreated controls
Procedure, shortened: as §1

Cyperus esculentus [18] = assay: Pre-emergence herbicidal action against CYPES; conditions: 320 g/ha; visual score after 3 weeks vs untreated controls
Procedure, shortened: as §1

Polygonum convolvulus [19] = assay: Post-emergence herbicidal action against POLCO; conditions: 80 g/ha, visual assessment about 3 weeks after treatment
Procedure, shortened: as §2

Polygonum convolvulus [20] = assay: Pre-emergence herbicidal action against POLCO; conditions: 320 g/ha
Procedure, shortened: as §1

Avena fatua [21] = assay: Post-emergence herbicidal action against AVEFA; conditions: for Post-emergence action against AVEFA in %: visual assessment about 3 weeks after treatment
Procedure, shortened: as §2

Abutilon theophrasti [22] = assay: Post-emergence herbicidal action against ABUTH
Procedure, shortened: as §2

Lolium rigidum [23] = assay: Pre-emergence herbicidal action against LOLRI
Procedure, shortened: as §1

Pharbitis purpurea [24] = assay: Post-emergence herbicidal action against PHBPU; conditions: for Post-emergence action against PHBPU in %: visual assessment about 3 weeks after treatment
Procedure, shortened: as §2

Avena fatua [25] = assay: Pre-emergence herbicidal action against AVEFA; conditions: visual score after 3 weeks vs untreated controls
Procedure, shortened: as §1

Setaria viridis [26] = assay: Post-emergence herbicidal action against SETVI; conditions: for Post-emergence action against SETVI in %: visual assessment about 3 weeks after treatment
Procedure, shortened: as §2

Amaranthus retroflexus [27] = assay: Post-emergence herbicidal action against AMARE; conditions: visual assessment about 3 weeks after treatment
Procedure, shortened: as §2

Echinochloa crus-galli [28] = assay: Pre-emergence herbicidal action against ECHCG; conditions: visual score after 3 weeks vs untreated controls
Procedure, shortened: as §1

Stellaria media [29] = assay: Pre-emergence herbicidal action against STEME
Procedure, shortened: as §1

Stellaria media [30] = assay: Post-emergence herbicidal action against STEME; conditions: for Post-emergence action against STEME in %: visual assessment about 3 weeks after treatment
Procedure, shortened: as §2

[31] = comparative experiment, 5 g a.i./ha

CCn1nnnc1NC(=O)c1ccc(C(F)(F)F)c(C(=O)N(C)C)c1Cl [Example 2-123]
Pre-emergence action against VIOTR (Viola tricolor [1]; 80 g/ha): 90% | Pre-emergence action against VIOTR (Viola tricolor [1]; 320 g/ha): 100% | Post-emergence action against HORMU in % (Hordeum murinum [2]; 20 g/ha): 90% | Post-emergence action against HORMU in % (Hordeum murinum [2]; 80 g/ha): 100% | Pre-emergence action against MATIN (Matricaria inodora [3]; 80 g/ha): 100% | Pre-emergence action against MATIN (Matricaria inodora [3]; 320 g/ha): 100% | Pre-emergence action against ALOMY (Alopecurus myosuroides [4]; 80 g/ha): 90% | Pre-emergence action against ALOMY (Alopecurus myosuroides [4]; 320 g/ha): 100% | Pre-emergence action against ABUTH (Abutilon theophrasti [5]; 20 g/ha): 100% | Pre-emergence action against ABUTH (Abutilon theophrasti [5]; 80 g/ha): 100% | Pre-emergence action against ABUTH (Abutilon theophrasti [5]; Dosage column 320 g/ha (heading prints 3200 g/ha)): 100% | Post-emergence action against ECHCG in % (Echinochloa crus-galli [6]; 5 g/ha): 100% | Post-emergence action against ECHCG in % (Echinochloa crus-galli [6]; 20 g/ha): 100% | Post-emergence action against ECHCG in % (Echinochloa crus-galli [6]; 80 g/ha): 100% | Post-emergence action against VIOTR in % (Viola tricolor [7]; 20 g/ha): 100% | Post-emergence action against VIOTR in % (Viola tricolor [7]; 80 g/ha): 100% | Pre-emergence action against PHBPU (Pharbitis purpurea [8]): 80% | Post-emergence action against CYPES in % (Cyperus esculentus [9]; 5 g/ha): 80% | Post-emergence action against CYPES in % (Cyperus esculentus [9]; 20 g/ha): 80% | Post-emergence action against CYPES in % (Cyperus esculentus [9]; 80 g/ha): 90% | Post-emergence action against MATIN in % (Matricaria inodora [10]; 5 g/ha): 90% | Post-emergence action against MATIN in % (Matricaria inodora [10]; 20 g/ha): 90% | Post-emergence action against MATIN in % (Matricaria inodora [10]; 80 g/ha): 100% | Herbicidal action against MATIN (Matricaria inodora [10]; [31]): 90 | Post-emergence action against VERPE in % (Veronica persica [11]; 20 g/ha): 80% | Post-emergence action against VERPE in % (Veronica persica [11]; 80 g/ha): 100% | Pre-emergence action against AMARE (Amaranthus retroflexus [12]; 20 g/ha): 90% | Pre-emergence action against AMARE (Amaranthus retroflexus [12]; 80 g/ha): 100% | Pre-emergence action against AMARE (Amaranthus retroflexus [12]; 320 g/ha): 100% | Post-emergence action against LOLRI in % (Lolium rigidum [13]): 100% | Pre-emergence action against SETVI (Setaria viridis [14]; 20 g/ha): 90% | Pre-emergence action against SETVI (Setaria viridis [14]; 80 g/ha): 100% | Pre-emergence action against SETVI (Setaria viridis [14]; 320 g/ha): 100% | Post-emergence action against ALOMY (Alopecurus myosuroides [15]; 5 g/ha): 90% | Post-emergence action against ALOMY (Alopecurus myosuroides [15]; 20 g/ha): 100% | Post-emergence action against ALOMY (Alopecurus myosuroides [15]; 80 g/ha): 100% | Herbicidal action against ALOMY (Alopecurus myosuroides [15]; [31]): 90 | Pre-emergence action against VERPE (Veronica persica [16]): 100% | Pre-emergence action against HORMU (Hordeum murinum [17]; 80 g/ha): 80% | Pre-emergence action against HORMU (Hordeum murinum [17]; 320 g/ha): 100% | Pre-emergence action against CYPES (Cyperus esculentus [18]): 80% | Post-emergence action against POLCO in % (Polygonum convolvulus [19]): 90% | Pre-emergence action against POLCO (Polygonum convolvulus [20]): 80% | Post-emergence action against AVEFA in % (Avena fatua [21]; 5 g/ha): 80% | Post-emergence action against AVEFA in % (Avena fatua [21]; 20 g/ha): 100% | Post-emergence action against AVEFA in % (Avena fatua [21]; 80 g/ha): 100% | Herbicidal action against AVEFA (Avena fatua [21]; [31]): 80 | Post-emergence action against ABUTH (Abutilon theophrasti [22]; 5 g/ha): 100% | Post-emergence action against ABUTH (Abutilon theophrasti [22]; 20 g/ha): 100% | Post-emergence action against ABUTH (Abutilon theophrasti [22]; 80 g/ha): 100% | Pre-emergence action against LOLRI (Lolium rigidum [23]; 80 g/ha): 80% | Pre-emergence action against LOLRI (Lolium rigidum [23]; 320 g/ha): 100% | Post-emergence action against PHBPU in % (Pharbitis purpurea [24]; 5 g/ha): 80% | Post-emergence action against PHBPU in % (Pharbitis purpurea [24]; 20 g/ha): 90% | Post-emergence action against PHBPU in % (Pharbitis purpurea [24]; 80 g/ha): 100% | Herbicidal action against PHBPU (Pharbitis purpurea [24]; [31]): 80 | Pre-emergence action against AVEFA (Avena fatua [25]; 80 g/ha): 90% | Pre-emergence action against AVEFA (Avena fatua [25]; 320 g/ha): 100% | Post-emergence action against SETVI in % (Setaria viridis [26]; 5 g/ha): 100% | Post-emergence action against SETVI in % (Setaria viridis [26]; 20 g/ha): 100% | Post-emergence action against SETVI in % (Setaria viridis [26]; 80 g/ha): 100% | Herbicidal action against SETVI (Setaria viridis [26]; [31]): 100 | Post-emergence action against AMARE in % (Amaranthus retroflexus [27]; 5 g/ha): 100% | Post-emergence action against AMARE in % (Amaranthus retroflexus [27]; 20 g/ha): 100% | Post-emergence action against AMARE in % (Amaranthus retroflexus [27]; 80 g/ha): 100% | Pre-emergence action against ECHCG (Echinochloa crus-galli [28]; 20 g/ha): 80% | Pre-emergence action against ECHCG (Echinochloa crus-galli [28]; 80 g/ha): 100% | Pre-emergence action against ECHCG (Echinochloa crus-galli [28]; 320 g/ha): 100% | Pre-emergence action against STEME (Stellaria media [29]; 20 g/ha): 90% | Pre-emergence action against STEME (Stellaria media [29]; 80 g/ha): 100% | Pre-emergence action against STEME (Stellaria media [29]; 320 g/ha): 100% | Post-emergence action against STEME in % (Stellaria media [30]; 5 g/ha): 100% | Post-emergence action against STEME in % (Stellaria media [30]; 20 g/ha): 100% | Post-emergence action against STEME in % (Stellaria media [30]; 80 g/ha): 100% | Herbicidal action against STEME (Stellaria media [30]; [31]): 100

Reference: patent US12599136B2, “Substituted isophthalic acid diamides and their use as herbicides” (Bayer Aktiengesellschaft, priority 2020, dated 2026)
